Where two headings read alike, the source gives them in different places.
Tests used:
[1] = test system: MDA-MB-468 (αVβ3−, αVβ5+, αVβ6+, α5β1−); conditions: read-out: IC50 MDA-MB-468, inhibition of cell viability, 96 hours
Source text: (§1) However, it should be noted that these cell lines overexpress other integrins (α5β1 in U87, αVβ6 in MDA-MB-468, and αVβ5 in both). […]
(§2) described recently.[S1] […] The purity of […]
(§3) the cell lines was validated using the Multiplex cell Contamination Test by Multiplexion (Heidelberg, Germany) as described recently.[S2]
(§4) U87-MG, MDA-MB 468 and A549 cells were cultivated continuously for not more than 3 months in MEM Eagle´s, DMEM or Ham´s F12 medium, respectively, supplemented with 10% heat inactivated fetus calf serum, L-glutamine and antibiotics. Cell lines were maintained at 37 °C and 5% CO2 in a high humidity atmosphere.
(§5) Cell therapy and viability assay
(§6) Cell viability assays were performed in U87-MG, A549 and MDA-MB 468 cell lines according to the following procedure: 2 × 10^3 cells/well were plated in 96-well black clear bottom plates (Perkin Elmer) and incubated overnight. […]
(§7) in cell culture media. The compounds were added to the cell culture and incubated for additional […]
(§8) was determined with the CellTiterGlo 2.0 assay (Promega) in accordance to manufacturer’s instructions. The cell viability was calculated in relation to the non-treated controls for each cell line. All samples were measured in triplicate.
(§9) All samples were measured in triplicate.

[2] = test system: U87 (αVβ3+, αVβ5+, αVβ6−, α5β1+); conditions: read-out: IC50 U87, inhibition of cell viability, 96 hours
Source text: as §1, §2, §3, §4, §5, §6, §7, §8, §9

[3] = test system: U87 cells (human glioblastoma, αVβ3+); assay: cells; format: cell-based
Method: The cell lines were treated with different concentrations of the free drug α-amanitin and conjugates 7–11 for 96 hours. […]
as §4, with “described recently.[S1] The SNP profiles matched known profiles or were unique. The purity of the cell lines was validated using the Multiplex cell Contamination Test by Multiplexion (Heidelberg, Germany) as described recently.[S2] No mycoplasma, SMRV or interspecies contamination was detected. U87-MG,” for “U87-MG,”
as §5
Cell viability assays were performed in U87-MG, A549 and MDA-MB 468 cell lines according to the following procedure: 2 × 10^3 cells/well were plated in 96-well black clear bottom plates (Perkin Elmer) and incubated overnight. 1:5 serial dilutions of compounds 7–11 were prepared in cell culture media. The compounds were added to the cell culture and incubated for additional 96 h. Starting concentration of compounds 7–11 in the wells was 1 × 10−5 M and cell viability was determined with the CellTiterGlo 2.0 assay (Promega) in accordance to manufacturer’s instructions. The cell viability was calculated in relation to the non-treated controls for each cell line. All samples were measured in triplicate. Data analysis was carried out using software GraphPad Prism (GraphPad Software Inc., La Jolla, CA, USA).
Competition experiment of compounds 10 and 11
The competition experiment s were performed in U87-MG and MDA-MB 468 cell lines according to the following procedure: 2 × 10^3 cells/well were plated in 96-well black clear bottom plates (Perkin Elmer) and incubated overnight. A solution containing 1 × 10−4 M of the conjugates 10 or 11 and 5 × 10−3 M of cilengitide (50-fold excess of ligand in comparison to the conjugate) was prepared in the growth medium and 1:5 serial dilutions were prepared in cell culture media. The compounds were added to cell culture and incubated for 96 h. The starting concentration of the compounds in the wells was 0.01 mM whereas that of cilengitide was 0.5 mM. The cell viability was determined with the CellTiterGlo 2.0 assay (Promega) in accordance to manufacturer’s instructions and the viability was calculated in relation to the non-treated controls for each cell line. All samples were measured in triplicate. Data analysis was carried out using software GraphPad Prism (GraphPad Software Inc., La Jolla, CA, USA).
[S1] F. Castro, W. G. Dirks, S. Fähnrich, A. Hotz-Wagenblatt, M. Pawlita, M. Schmitt, Int. J. Cancer […]
[S2] M. Schmitt, M. Pawlita, Nucleic Acids Res. 2009, 37, e119.

[4] = + 50-fold excess of cilengitide

**Q.** Which results are given for `CC[C@H](C)[C@@H]1NC(=O)CNC(=O)[C@@H]2Cc3c([nH]c4cc(OCc5ccc(NC(=O)[C@H](C)NC(=O)[C@@H](NC(=O)CCCC(=O)NCc6ccc(CN7C(=O)[C@H]8CC(=O)N[C@H](C(=O)O)CC(=O)NCC(=O)N[C@@H](CCCNC(=N)N)C(=O)NC[C@H]7C(=O)N8)cc6)C(C)C)cc5)ccc34)[S@+]([O-])C[C@H](NC(=O)CNC1=O)C(=O)N[C@@H](CC(N)=O)C(=O)N1C[C@H](O)C[C@H]1C(=O)N[C@@H]([C@@H](C)[C@@H](O)CO)C(=O)N2` [Compound 10, cyclo[DKP-isoDGR]-Val-Ala-α-amanitin]?
**A.** IC50 [1, 4]: 259 ± 55.2 nM; IC50 ([1]; without cilengitide): 47 ± 21.1 nM; IC50 [2, 4]: 106 ± 11.6 nM; IC50 ([2]; without cilengitide): 107 ± 26.8 nM; IC50 ([3]; 96 hours treatment, triplicate, read-out: IC50 U87 (αVβ3+), inhibition of cell viability): 143 ± 33.8 nM; more potent than α-amanitin ([3]; in U87, A549 and MDA-MB-468 cell lines, Table 3 entry 1 vs entry 5): 2.4–3.1 times

From publication PMC5827777, “Synthesis and biological evaluation of RGD and isoDGR peptidomimetic-α-amanitin conjugates for tumor-targeting” (Beilstein Journal of Organic Chemistry, 2018)
